Experimental findings from ChEMBL document CHEMBL4616601, “Meeting organometallic chemistry with drug discovery: CH activation enabled discovery of a new ring system of 12H-Indazolo[2,1-a]cinnolin-12-ones with anti-proliferation activity” (Bioorg Med Chem Lett, 2020) are described below.

Active and inactive are the calls of the source. The rule behind the calls is not given here.

Test [1] concerns PC-3. Briefly: Antiproliferative activity against human PC3 cells assessed as inhibition of cell viability at 0.5 to 5 uM after 72 hrs by CCK8 assay. The format is functional, cell-based.
Another test has as its system PANC-1. The test can be described thus: Antiproliferative activity against human PANC1 cells assessed as reduction in cell viability after 72 hrs. The format is functional, cell-based. Particulars: PANC-1, 72 h.
For test [2], the system named is PC-3. Briefly: Antiproliferative activity against human PC3 cells assessed as reduction in cell viability after 72 hrs by CCK8 assay. The format is functional, cell-based. Particulars: PC-3, 72 h.
Test [3] relates to PC-3. Briefly: Antiproliferative activity against human PC3 cells at 0.5 uM assessed as inhibition of cell viability after 72 hrs by CCK-8 assay relative to control. The format is functional. Particulars: PC-3, 72 h. For orientation: Tetrazolium dyes change colour on reduction, which living cells bring about.

Turning to `O=C1CCCc2c1c1ccccc1n1c(=O)c3ccccc3n21`, the result with PC-3 [1] was Active.
As to `COc1ccc2c(c1)c1c(n3c4ccccc4c(=O)n23)CCC1=O`, the outcome with PC-3 [1] was Active.
Take `CCOC(=O)c1c(C)n2c3ccccc3c(=O)n2c2ccc(F)cc12`: the outcome with PC-3 [1] was Active.
Take `Cc1c(C(=O)OCCO)c2ccccc2n2c(=O)c3ccccc3n12`: the result in the test on PC-3 [1] was inactive.
In general, IC50 refers to the midpoint of a concentration-inhibition curve. For `CCOC(=O)c1c(-c2ccccc2)n2c3ccccc3c(=O)n2c2ccc(OC)cc12`, the IC50 in the test on PANC-1 amounted to 4.23 µM; in the test with PC-3 [2], 2.02 µM. For the same molecule, the result in the test on PC-3 [1] was Active.
Consider `O=C1CCc2c1c1c3c(ccc1n1c(=O)c4ccccc4n21)OCO3`, for which the outcome in the test with PC-3 [1] was Active.
For `CCOC(=O)c1c(C)n2c3ccccc3c(=O)n2c2ccc(Cl)cc12`, the outcome in the test with PC-3 [1] was Active.
On to `CCOC(=O)c1c(-c2ccco2)n2c3ccccc3c(=O)n2c2ccccc12`, for which, in the test on PC-3 [1], the result was Active.
Turning to `O=C1CCc2c1c1cc(I)ccc1n1c(=O)c3ccccc3n21`, the outcome in the test with PC-3 [1] was Active.
For `CCOC(=O)c1c(-c2ccc(F)cc2)n2c3ccccc3c(=O)n2c2ccccc12`, in the test with PC-3 [1], the result was Active.
Take `O=C1CCc2c1c1ccccc1n1c(=O)c3ccccc3n21`: the result in the test on PC-3 [1] was Active.
On to `COC(=O)c1c(C2CC2)n2c3ccccc3c(=O)n2c2ccccc12`, for which, in the test with PC-3 [1], the result was inactive.
As to `COC(=O)c1c(C)n2c3ccccc3c(=O)n2c2c(F)cccc12`, the IC50 was determined as 0.528 µM in the test on PANC-1 and 0.334 µM in the test with PC-3 [2]. The result in the test on PC-3 [1] was Active.
Regarding `COc1ccc2c(c1)c1c(n3c4ccccc4c(=O)n23)CCCC1=O`, in the test with PC-3 [1], the result was Active.
On to `CCOC(=O)c1c(C)n2c3ccccc3c(=O)n2c2ccc(C)cc12`, for which the result with PC-3 [1] was Active.
With `CC(C)[C@]12O[C@H]1[C@@H]1O[C@@]13[C@@]1(C)CCC4=C(COC4=O)[C@@H]1C[C@@H]1O[C@@]13C2=O` [TRIPTONIDE], the IC50 in the test with PANC-1 turned out to be 0.047 µM; with PC-3 [2], 0.025 µM.
Regarding `CCOC(=O)c1c(C)n2c3ccccc3c(=O)n2c2ccc(OC)cc12`, in the test with PC-3 [1], the result was Active.
Consider `O=C1CCc2c1c1cccc(F)c1n1c(=O)c3ccccc3n21`, for which, in the test on PC-3 [1], the outcome was Active.
For the molecule `CCc1c(C(=O)OC)c2ccccc2n2c(=O)c3ccccc3n12`, the result in the test with PC-3 [1] was inactive.
On to `COc1cc(OC)c2c3c(n4c5ccccc5c(=O)n4c2c1)CCC3=O`, for which, in the test with PC-3 [1], the outcome was Active.
As to `CCOC(=O)c1c(C)n2c3ccccc3c(=O)n2c2ccc(Br)cc12`, the outcome in the test with PC-3 [1] was Active.
The same measure, in the same setting: for `COP(=O)(OC)c1c(C)n2c3ccccc3c(=O)n2c2ccccc12` the value was “inactive”.
Still for that read-out and setting: to `O=C1CCc2c1c1cc(Br)ccc1n1c(=O)c3ccccc3n21` belongs “Active”.
For `COC(=O)c1c(C)n2c3ccccc3c(=O)n2c2ccccc12`, the concentration for half-maximal inhibition (IC50) in the test with PANC-1 was found to be 0.551 µM; in the test on PC-3 [2], 1.01 µM. Also, the result in the test with PC-3 [1] was Active.
`CCOC(=O)c1c(-c2ccccc2)n2c3ccc(F)cc3c(=O)n2c2ccccc12`: the result in the test on PC-3 [1] was Active.
Still for that read-out and setting: to `COC(=O)c1c(C)n2c3ccccc3c(=O)n2c2cc3ccccc3cc12` belongs “Active”; to `CCOC(=O)c1c(-c2ccccc2)n2c3ccccc3c(=O)n2c2ccc(C#N)cc12`, “Active”; to `COC(=O)c1c(C)n2c3ccccc3c(=O)n2c2ccc(OC(F)(F)F)cc12`, “Active”.
The same measure, in the same setting: for `CCOC(=O)c1c(-c2ccccc2)n2c3ccccc3c(=O)n2c2ccc(-c3ccccc3)cc12` the value was “Active”; for `CCOC(=O)c1c(-c2ccc(C)cc2)n2c3ccccc3c(=O)n2c2ccccc12`, “Active”.
On the same count and under the same terms, for `CCOC(=O)c1c(-c2ccccc2)n2c3ccccc3c(=O)n2c2ccc(Br)cc12` the value was “Active”.
Turning to `CCOC(=O)c1c(C)n2c3ccc(OC)cc3c(=O)n2c2ccccc12`, the IC50 turned out to be 0.506 µM with PANC-1 and 0.475 µM in the test on PC-3 [2]. In addition, the outcome in the test with PC-3 [1] was Active.
Take `CCOC(=O)c1c(-c2cccc(OC)c2)n2c3ccccc3c(=O)n2c2ccccc12`: in the test on PC-3 [1], the outcome was Active.
As for `O=C(OCCO)c1c(-c2ccccc2)n2c3ccccc3c(=O)n2c2ccccc12`, the result in the test with PC-3 [1] was inactive.
On the same count and under the same terms, for `CCOC(=O)c1c(-c2ccccc2)n2c3ccccc3c(=O)n2c2ccc(I)cc12` the value was “Active”; for `CCOC(=O)c1c(C)n2c3ccccc3c(=O)n2c2ccc(I)cc12`, “Active”.
For `CCOC(=O)c1c(C)n2c3ccccc3c(=O)n2c2c(OC)cccc12`, the IC50 in the test with PANC-1 stood at 0.116 µM; in the test with PC-3 [2], 0.216 µM. For the same molecule, the outcome with PC-3 [1] was Active.
In the case of `COC(=O)c1c(C)n2c3ccccc3c(=O)n2c2cc(OC)c(OC)c(OC)c12`, the result in the test on PC-3 [1] was Active.
On to `CCc1ccc2c(c1)c(C(=O)OC)c(C)n1c3ccccc3c(=O)n21`, for which the outcome in the test on PC-3 [1] was Active.
On the same count and under the same terms, for `CCOC(=O)c1c(C)n2c3ccccc3c(=O)n2c2ccccc12` the value was “Active”; for `CCOC(=O)c1c(-c2ccccc2)n2c3ccccc3c(=O)n2c2ccccc12`, “Active”.
On the same count and under the same terms, to `COc1cc2c(c(OC)c1OC)c1c(n3c4ccccc4c(=O)n23)CCC1=O` belongs “Active”.
`CCOC(=O)c1c(-c2ccccc2)n2c3ccccc3c(=O)n2c2ccc(C)cc12`: in the test on PC-3 [1], the outcome was Active.
Take `COc1cccc2c3c(n4c5ccccc5c(=O)n4c12)CCC3=O`: the result in the test on PC-3 [1] was Active.
Still for that read-out and setting: for `O=C1CCCc2c1c1cc(F)ccc1n1c(=O)c3ccccc3n21` the value was “Active”.
Turning to `CCOC(=O)c1c(-c2ccc(I)cc2)n2c3ccccc3c(=O)n2c2ccccc12`, the IC50 was determined as 6.82 µM in the test on PANC-1 and 3.98 µM in the test on PC-3 [2]. Further, the result with PC-3 [1] was Active.
Regarding `O=C1CCc2c1c1cc(Cl)ccc1n1c(=O)c3ccccc3n21`, the result in the test with PC-3 [1] was Active.
With `CCOC(=O)c1c(-c2ccccc2)n2c3ccccc3c(=O)n2c2ccc(N3CCOCC3)cc12`, the results for the half-maximal inhibitory concentration (IC50) with PANC-1 and with PC-3 [2] were 13.8 µM and 7.49 µM, respectively. Further, the result with PC-3 [1] was Active.
`O=C1NCCc2c1c1ccccc1n1c(=O)c3ccccc3n21`: the result in the test on PC-3 [1] was Active.
On the same count and under the same terms, for `CCOC(=O)c1c(-c2ccc(OC)cc2)n2c3ccccc3c(=O)n2c2ccccc12` the value was “Active”; for `CCOC(=O)c1c(-c2ccccc2)n2c3ccccc3c(=O)n2c2cc(OC)cc(OC)c12`, “Active”.
The term inhibition denotes how much of the control response was suppressed. Take `CCOC(=O)c1c(-c2ccccc2)n2c3ccccc3c(=O)n2c2ccc3c(c12)OCO3`: the IC50 in the test on PANC-1 is above 50 µM; in the test with PC-3 [2] it was 5.82 µM. In the test on PC-3 [3], the inhibition at 0.5 µM amounted to 39.5%. Also, the result in the test with PC-3 [1] was Active.
Regarding `CCOC(=O)c1c(-c2ccccc2)n2c3ccccc3c(=O)n2c2ccc(Cl)cc12`, the 50% inhibitory concentration (IC50) with PANC-1 and in the test with PC-3 [2] was above 50 µM throughout. The outcome with PC-3 [1] was Active.
For `CCOC(=O)c1c(C)n2c3ccccc3c(=O)n2c2cc(OC)cc(OC)c12`, the result in the test with PC-3 [1] was Active.
As for `CCOC(=O)c1c(-c2ccccc2)n2c3ccccc3c(=O)n2c2ccc(F)cc12`, in the test with PC-3 [1], the result was Active.
For `CCOC(=O)c1c(-c2ccccc2)n2c3ccc(OC)cc3c(=O)n2c2ccccc12`, in the test with PC-3 [1], the result was Active.
